The results in this text go back to ChEMBL document CHEMBL1156078, “Structure-activity relationship (SAR) studies of 3-(2-amino-ethyl)-5-(4-ethoxy-benzylidene)-thiazolidine-2,4-dione: development of potential substrate-specific ERK1/2 inhibitors” (Bioorg Med Chem Lett, 2009).

Assay [1] deals with T1, Mitogen-activated protein kinase; ERK1/ERK2 (Homo sapiens) (UniProt P27361+P28482). As to the kind of experiment: Inhibition of ERK1/2 phosphorylation in PMA-stimulated human U937 cells at 50 uM after 3 hrs by Western blotting. The following applies: U-937. The class given is cell-based. For orientation: In western blotting, separated proteins are transferred to a membrane and probed.
T1 sequence (P27361 whole entry, looked up): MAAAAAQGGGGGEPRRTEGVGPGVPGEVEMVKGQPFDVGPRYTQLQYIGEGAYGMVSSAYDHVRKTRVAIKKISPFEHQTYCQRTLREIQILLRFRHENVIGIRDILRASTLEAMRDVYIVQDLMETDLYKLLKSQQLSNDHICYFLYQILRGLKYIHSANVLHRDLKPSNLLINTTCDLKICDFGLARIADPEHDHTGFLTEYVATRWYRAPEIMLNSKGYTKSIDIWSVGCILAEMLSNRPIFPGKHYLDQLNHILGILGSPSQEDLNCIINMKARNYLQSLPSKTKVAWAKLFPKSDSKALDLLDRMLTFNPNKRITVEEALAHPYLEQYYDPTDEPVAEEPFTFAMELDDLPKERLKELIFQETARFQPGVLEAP
T1 sequence (P28482 whole entry, looked up): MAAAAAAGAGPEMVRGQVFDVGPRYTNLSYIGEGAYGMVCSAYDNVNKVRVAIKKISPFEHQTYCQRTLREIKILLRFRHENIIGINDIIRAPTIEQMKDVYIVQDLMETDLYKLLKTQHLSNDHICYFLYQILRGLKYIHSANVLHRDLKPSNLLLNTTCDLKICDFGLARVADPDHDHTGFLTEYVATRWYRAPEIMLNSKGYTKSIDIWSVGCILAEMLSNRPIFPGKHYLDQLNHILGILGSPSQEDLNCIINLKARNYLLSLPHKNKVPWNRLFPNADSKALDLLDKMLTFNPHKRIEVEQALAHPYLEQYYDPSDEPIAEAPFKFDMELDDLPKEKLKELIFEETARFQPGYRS

The target in assay [2] is Ribosomal protein S6 kinase alpha-1 (Homo sapiens) (UniProt Q15418). As to the kind of experiment: Inhibition of Rsk1 phosphorylation in PMA-stimulated human U937 cells at 50 uM after 3 hrs by Western blotting. The class given is cell-based. The following applies: U-937.
Sequence of Ribosomal protein S6 kinase alpha-1 (Homo sapiens) (Q15418 whole entry): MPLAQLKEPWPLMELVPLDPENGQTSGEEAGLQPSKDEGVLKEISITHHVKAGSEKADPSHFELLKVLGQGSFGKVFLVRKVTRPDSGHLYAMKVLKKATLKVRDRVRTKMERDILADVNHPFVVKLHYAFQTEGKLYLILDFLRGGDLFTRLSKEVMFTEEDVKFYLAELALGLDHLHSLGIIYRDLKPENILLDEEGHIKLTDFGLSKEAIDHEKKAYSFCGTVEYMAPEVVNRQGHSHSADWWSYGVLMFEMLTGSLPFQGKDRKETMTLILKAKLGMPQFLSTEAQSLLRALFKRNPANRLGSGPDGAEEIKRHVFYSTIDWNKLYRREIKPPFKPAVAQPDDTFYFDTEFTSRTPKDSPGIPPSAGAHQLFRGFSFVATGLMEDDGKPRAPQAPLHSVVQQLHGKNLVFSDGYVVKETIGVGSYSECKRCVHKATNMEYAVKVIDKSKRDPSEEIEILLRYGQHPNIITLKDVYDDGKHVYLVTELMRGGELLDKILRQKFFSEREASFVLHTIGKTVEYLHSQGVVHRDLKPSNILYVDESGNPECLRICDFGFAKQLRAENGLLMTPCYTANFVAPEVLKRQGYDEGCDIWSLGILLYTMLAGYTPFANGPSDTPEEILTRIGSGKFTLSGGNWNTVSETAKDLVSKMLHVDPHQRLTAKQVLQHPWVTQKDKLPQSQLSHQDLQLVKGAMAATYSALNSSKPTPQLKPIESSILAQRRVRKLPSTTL
The target in assay [3] is Dual specificity mitogen-activated protein kinase kinase; MEK1/2 (Homo sapiens) (UniProt P36507+Q02750). As to the kind of experiment: Inhibition of MEK1/2 phosphorylation in PMA-stimulated human U937 cells at 50 uM after 3 hrs by Western blotting. It is filed as cell-based. Conditions: U-937.
Sequence of Dual specificity mitogen-activated protein kinase kinase; MEK1/2 (Homo sapiens) (P36507 whole entry, looked up, the tested form may be a part): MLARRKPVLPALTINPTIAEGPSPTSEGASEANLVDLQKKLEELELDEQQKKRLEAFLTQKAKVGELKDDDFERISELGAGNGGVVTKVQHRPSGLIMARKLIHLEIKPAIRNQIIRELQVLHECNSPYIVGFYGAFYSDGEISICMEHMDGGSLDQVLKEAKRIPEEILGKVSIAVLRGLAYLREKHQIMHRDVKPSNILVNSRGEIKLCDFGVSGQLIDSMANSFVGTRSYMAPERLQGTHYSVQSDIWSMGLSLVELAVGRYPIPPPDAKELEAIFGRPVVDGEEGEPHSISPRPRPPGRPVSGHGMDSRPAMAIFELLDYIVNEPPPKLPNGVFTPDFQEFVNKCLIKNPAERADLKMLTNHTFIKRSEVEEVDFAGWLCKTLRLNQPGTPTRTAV
Sequence of Dual specificity mitogen-activated protein kinase kinase; MEK1/2 (Homo sapiens) (Q02750 whole entry, looked up, the tested form may be a part): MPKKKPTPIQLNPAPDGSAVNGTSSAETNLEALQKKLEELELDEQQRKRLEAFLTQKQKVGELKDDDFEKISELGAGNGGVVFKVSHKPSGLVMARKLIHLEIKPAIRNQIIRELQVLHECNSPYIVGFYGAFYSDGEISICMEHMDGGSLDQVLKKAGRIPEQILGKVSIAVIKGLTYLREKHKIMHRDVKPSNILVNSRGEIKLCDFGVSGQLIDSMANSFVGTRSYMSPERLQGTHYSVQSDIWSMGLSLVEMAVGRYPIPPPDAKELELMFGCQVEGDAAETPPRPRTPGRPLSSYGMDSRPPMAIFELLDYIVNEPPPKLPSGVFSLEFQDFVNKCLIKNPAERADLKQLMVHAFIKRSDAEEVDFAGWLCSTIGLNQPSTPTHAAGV
Assay [4] addresses T2, ETS domain-containing protein Elk-1 (Homo sapiens) (UniProt P19419).
T2 sequence (whole entry): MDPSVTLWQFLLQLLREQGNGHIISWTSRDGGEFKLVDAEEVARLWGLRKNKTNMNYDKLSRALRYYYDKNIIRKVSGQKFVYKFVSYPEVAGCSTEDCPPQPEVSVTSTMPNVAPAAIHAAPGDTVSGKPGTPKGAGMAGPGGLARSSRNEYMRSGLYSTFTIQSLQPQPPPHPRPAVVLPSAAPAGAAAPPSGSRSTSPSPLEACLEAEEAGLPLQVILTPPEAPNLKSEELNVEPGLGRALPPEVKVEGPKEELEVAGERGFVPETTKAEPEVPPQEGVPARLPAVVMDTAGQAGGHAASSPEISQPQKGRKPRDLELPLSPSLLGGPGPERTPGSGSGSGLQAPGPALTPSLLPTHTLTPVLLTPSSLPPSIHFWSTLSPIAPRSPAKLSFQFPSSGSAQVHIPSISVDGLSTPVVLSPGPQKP
Put plainly: Inhibition of Elk1 phosphorylation in PMA-stimulated human U937 cells at 50 uM after 3 hrs by Western blotting. The class given is cell-based. Conditions: U-937.

For assay [5], the target named is MAP kinase p38 (Homo sapiens) (UniProt O15264+Q15759+Q16539+P53778). Put plainly: Inhibition of p38 phosphorylation in PMA-stimulated human U937 cells at 50 uM after 3 hrs by Western blotting. It is filed as cell-based. Conditions: U-937.
Assay [6] concerns U-937. As to the kind of experiment: Induction of apoptosis in human U937 assessed as loss of mitochondrial membrane potential after 18 hrs by DiOC6 uptake assay. The class given is functional, cell-based.
Assay [7] has as its target Ribosomal protein S6 kinase alpha-1 (Homo sapiens) (UniProt Q15418). Put plainly: Inhibition of Rsk1 phosphorylation in PMA-stimulated human U937 cells at 10 to 50 uM after 3 hrs by Western blotting. Conditions: U-937. It is filed as cell-based.
Assay [8] deals with T1, Mitogen-activated protein kinase; ERK1/ERK2 (Homo sapiens). As to the kind of experiment: Inhibition of ERK1/2 phosphorylation in PMA-stimulated human U937 cells at 10 to 50 uM after 3 hrs by Western blotting. It is filed as cell-based. The following applies: U-937.
Assay [9] can be described thus: Inhibition of MEK phosphorylation.
Assay [10] in a line: Inhibition of JNK phosphorylation.
The target of assay [11] is T1, Mitogen-activated protein kinase; ERK1/ERK2 (Homo sapiens). As to the kind of experiment: Inhibition of ERK1/2 phosphorylation in EGF-stimulated human SKOV3 cells. The class given is cell-based. The following applies: SK-OV-3.
For assay [12], the target named is Mitogen-activated protein kinase 1 (Homo sapiens) (UniProt P28482). As to the kind of experiment: Inhibition of recombinant ERK2-mediated myelin basic protein phosphorylation at 50 uM after 30 mins by SDS-PAGE.
Sequence of Mitogen-activated protein kinase 1 (Homo sapiens) (P28482 whole entry): as the sequence (P28482 whole entry, looked up) above
Assay [13] relates to U-937. As to the kind of experiment: Cytotoxicity against human U937 cells assessed as cell viability up to 30 uM after 24 hrs by MTT assay. The class given is functional, cell-based.
Assay [14] concerns U-937. Put plainly: Antiproliferative activity human U937 cells by [3H]thymidine incorporation assay. The class given is functional, cell-based. In general terms: Uptake of a labelled nucleoside into DNA is a usual measure of proliferation.

Activity calls are given as the source filed them. The calls are words filed in the database; no cut-off is given here.

As to `NCCN1C(=O)S/C(=C\c2cccc3ccccc23)C1=O`, the inhibition result in [1], in assay [2], in [3], in assay [4] and in [5] was “Active” each time. In the assay on U-937 [6], the outcome was inactive.

Take `CCOc1ccc(/C=C2\SC(=O)N(CCN(C)C)C2=O)cc1`: the inhibition result in [7] is “inactive”.

In the case of `CCOc1cccc(/C=C2\SC(=O)N(CCN)C2=O)c1`, the inhibition entry in assay [8] and in [7] was “inactive” throughout.

As to `CCOc1ccc(/C=C2\SC(=O)N(CCNC(C)=O)C2=O)cc1`, the inhibition entry in [7] is “inactive”.

`NCCN1C(=O)S/C(=C\c2ccccc2)C1=O`: the inhibition entry in assay [8] and in [7] was “inactive” each time.

Turning to `NCCN1C(=O)S/C(=C\c2cccc(F)c2)C1=O`, the inhibition result in assay [7] was “inactive”.

As to `CCOc1ccccc1/C=C1\SC(=O)N(CCN)C1=O`, the inhibition result in [8], in assay [5], in assay [9], in assay [10], in assay [11] and in [12] was “inactive” each time. Also, the inhibition entry in assay [7] and in assay [4] was “Active” in each case. Further, the result in the assay on U-937 [13] was inactive. Moreover, the Activity entry in the assay with U-937 [14] and in the assay on U-937 [6] was “Dose-dependent effect” in each case.

On to `COc1ccc(/C=C2\SC(=O)N(CCN)C2=O)cc1`, for which the inhibition result in assay [8] and in assay [7] was “inactive” in each case.

As for `CCOc1ccc(/C=C2\SC(=O)N(CCN)C2=O)cc1`, the inhibition entry in assay [1], in assay [5], in assay [9], in assay [10], in assay [11] and in assay [12] was “inactive” in each case. The inhibition entry in assay [2] was “Active”. In the assay with U-937 [13], the outcome was inactive.

Consider `Cc1ccc(/C=C2\SC(=O)N(CCN)C2=O)cc1`, for which the inhibition entry in assay [8] and in assay [7] was “inactive” each time.

Consider `CN(C)CCN1C(=O)S/C(=C\C/C=C/c2ccccc2)C1=O`, for which the inhibition result in assay [1], in assay [2] and in assay [4] was “Active” throughout. Also, in [5], the inhibition entry is “inactive”.

Turning to `NCCN1C(=O)S/C(=C\[C@H](O)[C@@H](O)c2ccccc2)C1=O`, the inhibition entry in assay [1] was “inactive”.

In the case of `NCCN1C(=O)S/C(=C\c2ccc(F)cc2)C1=O`, the inhibition result in assay [7] was “inactive”.

As to `NCCN1C(=O)S/C(=C\c2ccc3c(c2)OCCO3)C1=O`, the inhibition entry in assay [1], in [2], in [3], in [4] and in [5] was “Active” in each case. Further, in the assay on U-937 [6], the result was inactive.

In the case of `NCCN1C(=O)S/C(=C\c2ccc([N+](=O)[O-])cc2)C1=O`, the inhibition result in assay [7] is “inactive”.

On to `NCCN1C(=O)S/C(=C\c2cccc([N+](=O)[O-])c2)C1=O`, for which, in assay [7], the inhibition entry is “inactive”.

Regarding `NCCN1C(=O)S/C(=C\c2ccc(-c3ccc(Cl)cc3)cc2)C1=O`, the inhibition result in [8] was “inactive”. In addition, in assay [7], the inhibition result is “Active”.
